Test results from PubChem BioAssay (NCI).
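Grown in 96-well plates, cells were treated for 48 hours with each compound at five concentrations. Insufficient inhibition: endpoint recorded as highest concentration tested. Definition used: TGI = concentration required for complete inhibition of growth.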

Legend:
Assay in all cases: NCI tumour cell line growth inhibition, 48 h
PC-3 prostate = tested on: PC-3 prostate
COLO 205 colon = tested on: COLO 205 colon
SF-539 CNS = tested on: SF-539 CNS
OVCAR-8 ovarian = tested on: OVCAR-8 ovarian
SN12C renal = tested on: SN12C renal
HT29 colon = tested on: HT29 colon
HCC-2998 colon = tested on: HCC-2998 colon
KM12 colon = tested on: KM12 colon
OVCAR-4 ovarian = tested on: OVCAR-4 ovarian
EKVX NSCLC = tested on: EKVX NSCLC
UO-31 renal = tested on: UO-31 renal
MCF7 breast = tested on: MCF7 breast
SNB-75 CNS = tested on: SNB-75 CNS
CCRF-CEM leukemia = tested on: CCRF-CEM leukemia
SK-OV-3 ovarian = tested on: SK-OV-3 ovarian
786-0 renal = tested on: 786-0 renal
A549 NSCLC = tested on: A549 NSCLC
SR leukemia = tested on: SR leukemia
RXF 393 renal = tested on: RXF 393 renal
RPMI-8226 leukemia = tested on: RPMI-8226 leukemia
M14 melanoma = tested on: M14 melanoma
MALME-3M melanoma = tested on: MALME-3M melanoma
A498 renal = tested on: A498 renal
K-562 leukemia = tested on: K-562 leukemia
OVCAR-5 ovarian = tested on: OVCAR-5 ovarian
HCT-15 colon = tested on: HCT-15 colon
HOP-62 NSCLC = tested on: HOP-62 NSCLC
OVCAR-3 ovarian = tested on: OVCAR-3 ovarian
SNB-19 CNS = tested on: SNB-19 CNS
HS 578T breast = tested on: HS 578T breast
HOP-92 NSCLC = tested on: HOP-92 NSCLC
U251 CNS = tested on: U251 CNS
MDA-MB-231 breast = tested on: MDA-MB-231 breast
MDA-N = tested on: MDA-N
CAKI-1 renal = tested on: CAKI-1 renal
SK-MEL-5 melanoma = tested on: SK-MEL-5 melanoma
UACC-62 melanoma = tested on: UACC-62 melanoma
SW-620 colon = tested on: SW-620 colon
TK-10 renal = tested on: TK-10 renal
MOLT-4 leukemia = tested on: MOLT-4 leukemia
SF-268 CNS = tested on: SF-268 CNS
IGROV1 ovarian = tested on: IGROV1 ovarian
T-47D breast = tested on: T-47D breast
NCI-H460 lung = tested on: NCI-H460 lung
NCI-H23 lung = tested on: NCI-H23 lung
ACHN renal = tested on: ACHN renal
UACC-257 melanoma = tested on: UACC-257 melanoma
HCT-116 colon = tested on: HCT-116 colon
NCI-H226 lung = tested on: NCI-H226 lung
SF-295 CNS = tested on: SF-295 CNS
SK-MEL-2 melanoma = tested on: SK-MEL-2 melanoma
DU-145 prostate = tested on: DU-145 prostate
BT-549 breast = tested on: BT-549 breast
LOX IMVI melanoma = tested on: LOX IMVI melanoma
NCI-H522 lung = tested on: NCI-H522 lung
HL-60(TB) leukemia = tested on: HL-60(TB) leukemia
SK-MEL-28 melanoma = tested on: SK-MEL-28 melanoma
MDA-MB-435 = tested on: MDA-MB-435
NCI/ADR-RES ovarian = tested on: NCI/ADR-RES ovarian

Measured: TGI

NCCCc1c(-c2ccccc2)nc(N)[nH]c1=O
> 100 µM: PC-3 prostate | COLO 205 colon | SF-539 CNS | OVCAR-8 ovarian | SN12C renal | HT29 colon | HCC-2998 colon | KM12 colon | OVCAR-4 ovarian | EKVX NSCLC | UO-31 renal | MCF7 breast | SNB-75 CNS | CCRF-CEM leukemia | SK-OV-3 ovarian | 786-0 renal | A549 NSCLC | SR leukemia | RXF 393 renal | RPMI-8226 leukemia | M14 melanoma | MALME-3M melanoma | A498 renal | K-562 leukemia | OVCAR-5 ovarian | HCT-15 colon | HOP-62 NSCLC | OVCAR-3 ovarian | SNB-19 CNS | HS 578T breast | HOP-92 NSCLC | U251 CNS | MDA-MB-231 breast | MDA-N | CAKI-1 renal | SK-MEL-5 melanoma | UACC-62 melanoma | SW-620 colon | TK-10 renal | MOLT-4 leukemia | SF-268 CNS | IGROV1 ovarian | T-47D breast | NCI-H460 lung | NCI-H23 lung | ACHN renal | UACC-257 melanoma | HCT-116 colon | NCI-H226 lung | SF-295 CNS | SK-MEL-2 melanoma | DU-145 prostate | BT-549 breast | LOX IMVI melanoma | NCI-H522 lung | HL-60(TB) leukemia | SK-MEL-28 melanoma | MDA-MB-435 | NCI/ADR-RES ovarian

Cc1ccc(S(=O)(=O)/N=C(\[O-])C2=C(c3ccccc3)NN(C)c3nc4cccc[n+]4nc32)cc1
> 100 µM: PC-3 prostate | SF-539 CNS | OVCAR-8 ovarian | SN12C renal | HT29 colon | HCC-2998 colon | KM12 colon | OVCAR-4 ovarian | EKVX NSCLC | UO-31 renal | MCF7 breast | SNB-75 CNS | CCRF-CEM leukemia | 786-0 renal | A549 NSCLC | SR leukemia | RXF 393 renal | RPMI-8226 leukemia | M14 melanoma | MALME-3M melanoma | A498 renal | K-562 leukemia | OVCAR-5 ovarian | HCT-15 colon | SNB-19 CNS | HS 578T breast | U251 CNS | MDA-MB-231 breast | MDA-N | CAKI-1 renal | SK-MEL-5 melanoma | UACC-62 melanoma | SW-620 colon | TK-10 renal | MOLT-4 leukemia | SF-268 CNS | IGROV1 ovarian | T-47D breast | NCI-H460 lung | NCI-H23 lung | ACHN renal | UACC-257 melanoma | HCT-116 colon | NCI-H226 lung | SK-MEL-2 melanoma | DU-145 prostate | BT-549 breast | LOX IMVI melanoma | NCI-H522 lung | HL-60(TB) leukemia | SK-MEL-28 melanoma | MDA-MB-435 | NCI/ADR-RES ovarian
81.9 µM: HOP-92 NSCLC
53.3 µM: COLO 205 colon

CC(C)(C)OC(=O)NC(Cc1ccc(OCc2ccccc2)cn1)C(=O)N1CCSCC1 (stereo not drawn)
33.1 µM: COLO 205 colon
59.1 µM: RPMI-8226 leukemia | MOLT-4 leukemia
29.9 µM: SK-MEL-5 melanoma
> 100 µM: SF-539 CNS | OVCAR-8 ovarian | SN12C renal | HT29 colon | HCC-2998 colon | KM12 colon | EKVX NSCLC | UO-31 renal | MCF7 breast | CCRF-CEM leukemia | SK-OV-3 ovarian | 786-0 renal | A549 NSCLC | M14 melanoma | MALME-3M melanoma | A498 renal | K-562 leukemia | OVCAR-5 ovarian | HCT-15 colon | HOP-62 NSCLC | OVCAR-3 ovarian | SNB-19 CNS | HS 578T breast | HOP-92 NSCLC | U251 CNS | MDA-MB-231 breast | MDA-N | CAKI-1 renal | UACC-62 melanoma | SW-620 colon | TK-10 renal | SF-268 CNS | IGROV1 ovarian | NCI-H460 lung | NCI-H23 lung | ACHN renal | HCT-116 colon | SF-295 CNS | SK-MEL-2 melanoma | DU-145 prostate | LOX IMVI melanoma | NCI-H522 lung | SK-MEL-28 melanoma | MDA-MB-435
75.3 µM: SR leukemia
49.6 µM: T-47D breast
82.5 µM: UACC-257 melanoma
76.5 µM: SNB-75 CNS
88.5 µM: RXF 393 renal
98.9 µM: PC-3 prostate
81.1 µM: HL-60(TB) leukemia
71.7 µM: BT-549 breast
94.5 µM: NCI/ADR-RES ovarian

O=C1OC(C2OC(=O)c3cc(O)c(O)c(O)c3-c3c(O)c(O)c4oc(=O)c5c(c(O)c(O)c6oc(=O)c3c4c65)-c3c(cc(O)c(O)c3O)C(=O)OCC2O)C2OC(=O)c3c(c(O)c(O)c(O)c3[C@H]2O)-c2c1cc(O)c(O)c2O (stereo partly drawn)
42.3 µM: MDA-MB-435
73.5 µM: RXF 393 renal | NCI/ADR-RES ovarian
48.9 µM: SW-620 colon
33.3 µM: HCT-15 colon
36.4 µM: SN12C renal
38.8 µM: HCT-116 colon | HL-60(TB) leukemia
41 µM: EKVX NSCLC
81.9 µM: UO-31 renal
39.5 µM: M14 melanoma
47.7 µM: OVCAR-8 ovarian
56.5 µM: UACC-62 melanoma
57.6 µM: U251 CNS
22.4 µM: CAKI-1 renal
65.3 µM: MOLT-4 leukemia
44.5 µM: NCI-H522 lung
63.7 µM: SNB-75 CNS
63 µM: KM12 colon
43.4 µM: SR leukemia
78.5 µM: SF-268 CNS
36.6 µM: COLO 205 colon
44.9 µM: 786-0 renal
31.6 µM: HT29 colon
41.2 µM: NCI-H23 lung
42.5 µM: K-562 leukemia
53.8 µM: MDA-N
21.5 µM: MCF7 breast
33.9 µM: SK-MEL-5 melanoma
35.5 µM: LOX IMVI melanoma
33.7 µM: MDA-MB-231 breast
47.3 µM: OVCAR-5 ovarian
68.5 µM: SF-295 CNS
37.6 µM: CCRF-CEM leukemia
46 µM: OVCAR-4 ovarian
80.1 µM: T-47D breast
87.1 µM: HOP-92 NSCLC
67.5 µM: OVCAR-3 ovarian
80.3 µM: ACHN renal
44.2 µM: NCI-H226 lung
76.9 µM: RPMI-8226 leukemia
> 100 µM: PC-3 prostate | HCC-2998 colon | SK-OV-3 ovarian | A549 NSCLC | MALME-3M melanoma | A498 renal | HOP-62 NSCLC | SNB-19 CNS | HS 578T breast | IGROV1 ovarian | NCI-H460 lung | UACC-257 melanoma | SK-MEL-2 melanoma | DU-145 prostate | BT-549 breast | SK-MEL-28 melanoma
